{
  "source": "paper PMC3923664",
  "about": "“A Long-Chain Flavodoxin Protects Pseudomonas aeruginosa from Oxidative Stress and Host Bacterial Clearance” (PLoS Genetics, 2014)",
  "key": {"[1]": {"target": "T1, IsiB (Nostoc sp. PCC 7119, UniProt P0A3E0)", "T1 construct": "recombinant, expressed in E. coli and purified after Fillat et al; long-chain flavodoxin", "T1 sequence (P0A3E0 2-170)": "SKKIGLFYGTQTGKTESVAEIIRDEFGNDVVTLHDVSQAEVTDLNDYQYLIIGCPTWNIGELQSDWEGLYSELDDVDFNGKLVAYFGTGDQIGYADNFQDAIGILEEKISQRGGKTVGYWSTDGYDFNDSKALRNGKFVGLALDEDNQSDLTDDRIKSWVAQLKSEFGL", "assay": "UV-visible absorption spectrum of purified holoprotein", "assay_type": "binding", "conditions": "co-purified prosthetic group; 50 mM Tris-HCl pH 8.5"}, "[2]": {"target": "T2, FldA (Escherichia coli, UniProt P61949)", "T2 construct": "purified; preparation not described", "T2 sequence (P61949 2-176)": "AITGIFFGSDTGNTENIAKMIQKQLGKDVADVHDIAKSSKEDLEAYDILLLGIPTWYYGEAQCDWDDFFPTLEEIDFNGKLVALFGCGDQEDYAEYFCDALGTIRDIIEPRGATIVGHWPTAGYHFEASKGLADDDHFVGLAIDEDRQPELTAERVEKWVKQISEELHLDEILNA", "assay": "UV-visible absorption spectrum of purified holoprotein", "assay_type": "binding", "conditions": "co-purified prosthetic group; 50 mM Tris-HCl pH 8.5"}},
  "data": [
    {"smiles": "Cc1cc2nc3c(=O)[nH]c(=O)nc-3n(C[C@H](O)[C@H](O)[C@H](O)COP(=O)(O)O)c2cc1C", "note": "[FMN]", "values": [
      {"measurement": "UV-visible absorption spectrum of purified holoprotein", "setting": "[1]", "value": "is strongly red-shifted in the flavodoxins from Anabaena and E. coli (Figure 2A)"},
      {"measurement": "UV-visible absorption spectrum of purified holoprotein", "setting": "[2]", "value": "is strongly red-shifted in the flavodoxins from Anabaena and E. coli (Figure 2A)"}
    ]}
  ]
}
